Results published in US12281125B2, “Rapamycin derivatives” (NOVARTIS AG, priority 2018, dated 2025).

System: mTORc1 signaling, pS6 (Ser240/244) in MEF TSCl−/− cells
Test: Cell-based assay for rapalog potency (pS6) in MEF TSCl−/− cells
Settings: Mus musculus, 2 hours treatment, average from multiple assays
Protocol: Rapalog potency was determined using MEF TSCl−/− cell based assay. MEF TSCl−/− cells are Mouse Embryonic Fibroblasts deficient in Tuberous sclerosis protein—TSCl, which negatively regulates mTORc1 signaling and thus display constitutive mTORc1 activation, resulting in phosphorylation (activation) of downstream molecules. This cell-based assay is used to measure inhibition (de-phosphorylation) of S6 and 4EBP1 by rapalogs or other mTOR inhibitors.
MEF TSCl−/− cells were plated on Poly-D-lysine coated 384 well Griener clear bottom plates and incubated overnight at 37° C., 5% CO2. On the following day, cells were washed 8 times with “Hard starve” solution (1 L DPBS+1 g D-(+) glucose+10 ml of 7.5% Sodium Bicarbonate+20 ml of 1M HEPES) and incubated for further 2 hours in the same solution. Cells were next treated with compounds with decreasing concentrations (8 points at 3.16 fold dilutions) and incubated for 2 hours at 37° C., 5% CO2. Cells were fixed with 4% paraformaldehyde for 30 min and washed 5 times with TBS-EDTA followed by immuno-staining with fluorescent tag labeled antibodies for pS6 (Ser240/244) (Cell Signaling #9468) and p4EBP1 (Thr 37/46) (Cell Signaling #5123). Nuclei were visualized with Hoechst (ThermoFisher Scientific #H3570) staining. Cells were imaged (InCell 600) using respective fluorescence channels and the potency of mTOR inhibitors was defined by pS6 IC50 (nM).
In vitro potency of mTOR inhibitors was defined by pS6 IC50 (nM) in MEF TSCl−/− cells.
IC50 values are calculated as the average from multiple assays.

IC50 [nM] | Structure (SMILES)
13 | CCCS(=O)(=O)N[C@@H]1C[C@@H]2CC[C@@H](C)[C@@](O)(O2)C(=O)C(=O)N2CCCC[C@H]2C(=O)O[C@H]([C@H](C)C[C@@H]2CC[C@@H](O)[C@H](OC)C2)CC[C@H](C)/C=C(\C)[C@@H](O)[C@@H](OC)C(=O)[C@H](C)C[C@H](C)/C=C/C=C/C=C/1C [Compound 6]
1.8 | CCCS(=O)(=O)N[C@H]1C[C@@H]2CC[C@@H](C)[C@@](O)(O2)C(=O)C(=O)N2CCCC[C@H]2C(=O)O[C@H]([C@H](C)C[C@@H]2CC[C@@H](O)[C@H](OC)C2)CC[C@H](C)/C=C(\C)[C@@H](O)[C@@H](OC)C(=O)[C@H](C)C[C@H](C)/C=C/C=C/C=C/1C [Compound 5]
1.6 | CO[C@@H]1C[C@H](C[C@@H](C)[C@@H]2CC[C@H](C)/C=C(\C)[C@@H](O)[C@@H](OC)C(=O)[C@H](C)C[C@H](C)/C=C/C=C/C=C(\C)[C@@H](NS(=O)(=O)CCCCl)C[C@@H]3CC[C@@H](C)[C@@](O)(O3)C(=O)C(=O)N3CCCC[C@H]3C(=O)O2)CC[C@H]1O [Compound 17]
4.5 | CO[C@@H]1C[C@H](C[C@@H](C)[C@@H]2CC[C@H](C)/C=C(\C)[C@@H](O)[C@@H](OC)C(=O)[C@H](C)C[C@H](C)/C=C/C=C/C=C(\C)[C@H](NS(=O)(=O)C(C)C)C[C@@H]3CC[C@@H](C)[C@@](O)(O3)C(=O)C(=O)N3CCCC[C@H]3C(=O)O2)CC[C@H]1O [Compound 8]
0.35 | CO[C@@H]1C[C@H](C[C@@H](C)[C@@H]2CC[C@H](C)/C=C(\C)[C@@H](O)[C@@H](OC)C(=O)[C@H](C)C[C@H](C)/C=C/C=C/C=C(\C)[C@@H](N)C[C@@H]3CC[C@@H](C)[C@@](O)(O3)C(=O)C(=O)N3CCCC[C@H]3C(=O)O2)CC[C@H]1O [Compound 28]
3.6 | CO[C@@H]1C[C@H](C[C@@H](C)[C@@H]2CC[C@H](C)/C=C(\C)[C@@H](O)[C@@H](OC)C(=O)[C@H](C)C[C@H](C)/C=C/C=C/C=C(\C)[C@@H](NS(=O)(=O)C3CCCC3)C[C@@H]3CC[C@@H](C)[C@@](O)(O3)C(=O)C(=O)N3CCCC[C@H]3C(=O)O2)CC[C@H]1O [Compound 15]
0.21 | CO[C@@H]1C[C@H](C[C@@H](C)[C@@H]2CC[C@H](C)/C=C(\C)[C@@H](O)[C@@H](OC)C(=O)[C@H](C)C[C@H](C)/C=C/C=C/C=C(\C)[C@@H](NO)C[C@@H]3CC[C@@H](C)[C@@](O)(O3)C(=O)C(=O)N3CCCC[C@H]3C(=O)O2)CC[C@H]1O [Compound 37]
1.7 | CO[C@@H]1C[C@H](C[C@@H](C)[C@@H]2CC[C@H](C)/C=C(\C)[C@@H](O)[C@@H](OC)C(=O)[C@H](C)C[C@H](C)/C=C/C=C/C=C(\C)[C@H](NS(=O)(=O)CCO)C[C@@H]3CC[C@@H](C)[C@@](O)(O3)C(=O)C(=O)N3CCCC[C@H]3C(=O)O2)CC[C@H]1O [Compound 20]
> 500 | CO[C@@H]1C[C@H](C[C@@H](C)[C@@H]2CC[C@H](C)/C=C(\C)[C@@H](O)[C@@H](OC)C(=O)[C@H](C)C[C@H](C)/C=C/C=C/C=C(\C)[C@H](NCCS(=O)(=O)O)C[C@@H]3CC[C@@H](C)[C@@](O)(O3)C(=O)C(=O)N3CCCC[C@H]3C(=O)O2)CC[C@H]1O [Compound 39]
2.7 | CO[C@@H]1C[C@H](C[C@@H](C)[C@@H]2CC[C@H](C)/C=C(\C)[C@@H](O)[C@@H](OC)C(=O)[C@H](C)C[C@H](C)/C=C/C=C/C=C(\C)[C@@H](NS(=O)(=O)CC(C)C)C[C@@H]3CC[C@@H](C)[C@@](O)(O3)C(=O)C(=O)N3CCCC[C@H]3C(=O)O2)CC[C@H]1O [Compound 9]
27 | CO[C@@H]1C[C@H](C[C@@H](C)[C@@H]2CC[C@H](C)/C=C(\C)[C@@H](O)[C@@H](OC)C(=O)[C@H](C)C[C@H](C)/C=C/C=C/C=C(\C)[C@H](N(O)C(=O)OC(C)(C)C)C[C@@H]3CC[C@@H](C)[C@@](O)(O3)C(=O)C(=O)N3CCCC[C@H]3C(=O)O2)CC[C@H]1O [Compound 34]
0.67 | CN[C@H]1C[C@@H]2CC[C@@H](C)[C@@](O)(O2)C(=O)C(=O)N2CCCC[C@H]2C(=O)O[C@H]([C@H](C)C[C@@H]2CC[C@@H](O)[C@H](OC)C2)CC[C@H](C)/C=C(\C)[C@@H](O)[C@@H](OC)C(=O)[C@H](C)C[C@H](C)/C=C/C=C/C=C/1C [Compound 33]
2.4 | CO[C@@H]1C[C@H](C[C@@H](C)[C@@H]2CC[C@H](C)/C=C(\C)[C@@H](O)[C@@H](OC)C(=O)[C@H](C)C[C@H](C)/C=C/C=C/C=C(\C)[C@@H](NS(=O)(=O)C(C)C)C[C@@H]3CC[C@@H](C)[C@@](O)(O3)C(=O)C(=O)N3CCCC[C@H]3C(=O)O2)CC[C@H]1O [Compound 7]
2.1 | CO[C@@H]1C[C@H](C[C@@H](C)[C@@H]2CC[C@H](C)/C=C(\C)[C@@H](O)[C@@H](OC)C(=O)[C@H](C)C[C@H](C)/C=C/C=C/C=C(\C)[C@H](NS(C)(=O)=O)C[C@@H]3CC[C@@H](C)[C@@](O)(O3)C(=O)C(=O)N3CCCC[C@H]3C(=O)O2)CC[C@@H]1n1cnnn1 [Compound 21]
0.34 | CO[C@@H]1C[C@H](C[C@@H](C)[C@@H]2CC[C@H](C)/C=C(\C)[C@@H](O)[C@@H](OC)C(=O)[C@H](C)C[C@H](C)/C=C/C=C/C=C(\C)[C@@H](NS(=O)(=O)CCO)C[C@@H]3CC[C@@H](C)[C@@](O)(O3)C(=O)C(=O)N3CCCC[C@H]3C(=O)O2)CC[C@H]1O [Compound 19]
1.9 | CO[C@@H]1C[C@H](C[C@@H](C)[C@@H]2CC[C@H](C)/C=C(\C)[C@@H](O)[C@@H](OC)C(=O)[C@H](C)C[C@H](C)/C=C/C=C/C=C(\C)[C@@H](N(C)S(C)(=O)=O)C[C@@H]3CC[C@@H](C)[C@@](O)(O3)C(=O)C(=O)N3CCCC[C@H]3C(=O)O2)CC[C@H]1OP(C)(C)=O [Compound 27]
5.3 | CO[C@@H]1C[C@H](C[C@@H](C)[C@@H]2CC[C@H](C)/C=C(\C)[C@@H](O)[C@@H](OC)C(=O)[C@H](C)C[C@H](C)/C=C/C=C/C=C(\C)[C@@H](NS(=O)(=O)C3CCC3)C[C@@H]3CC[C@@H](C)[C@@](O)(O3)C(=O)C(=O)N3CCCC[C@H]3C(=O)O2)CC[C@H]1O [Compound 13]
50 | CO[C@@H]1C[C@H](C[C@@H](C)[C@@H]2CC[C@H](C)/C=C(\C)[C@@H](O)[C@@H](OC)C(=O)[C@H](C)C[C@H](C)/C=C/C=C/C=C(\C)[C@H](NS(=O)(=O)C3CCCC3)C[C@@H]3CC[C@@H](C)[C@@](O)(O3)C(=O)C(=O)N3CCCC[C@H]3C(=O)O2)CC[C@H]1O [Compound 16]
1.6 | CO[C@@H]1C[C@H](C[C@@H](C)[C@@H]2CC[C@H](C)/C=C(\C)[C@@H](O)[C@@H](OC)C(=O)[C@H](C)C[C@H](C)/C=C/C=C/C=C(\C)[C@H](NO)C[C@@H]3CC[C@@H](C)[C@@](O)(O3)C(=O)C(=O)N3CCCC[C@H]3C(=O)O2)CC[C@H]1O [Compound 36]
7.2 | CO[C@@H]1C[C@H](C[C@@H](C)[C@@H]2CC[C@H](C)/C=C(\C)[C@@H](O)[C@@H](OC)C(=O)[C@H](C)C[C@H](C)/C=C/C=C/C=C(\C)[C@H](NS(=O)(=O)C3CCC3)C[C@@H]3CC[C@@H](C)[C@@](O)(O3)C(=O)C(=O)N3CCCC[C@H]3C(=O)O2)CC[C@H]1O [Compound 14]
18 | CN[C@@H]1C[C@@H]2CC[C@@H](C)[C@@](O)(O2)C(=O)C(=O)N2CCCC[C@H]2C(=O)O[C@H]([C@H](C)C[C@@H]2CC[C@@H](O)[C@H](OC)C2)CC[C@H](C)/C=C(\C)[C@@H](O)[C@@H](OC)C(=O)[C@H](C)C[C@H](C)/C=C/C=C/C=C/1C [Compound 32]
4.4 | CO[C@@H]1C[C@H](C[C@@H](C)[C@@H]2CC[C@H](C)/C=C(\C)[C@@H](O)[C@@H](OC)C(=O)[C@H](C)C[C@H](C)/C=C/C=C/C=C(\C)[C@@H](N(O)C(=O)OC(C)(C)C)C[C@@H]3CC[C@@H](C)[C@@](O)(O3)C(=O)C(=O)N3CCCC[C@H]3C(=O)O2)CC[C@H]1O [Compound 35]
33 | CO[C@@H]1C[C@H](C[C@@H](C)[C@@H]2CC[C@H](C)/C=C(\C)[C@@H](O)[C@@H](OC)C(=O)[C@H](C)C[C@H](C)/C=C/C=C/C=C(\C)[C@H](NCCS(=O)(=O)O)C[C@@H]3CC[C@@H](C)[C@@](O)(O3)C(=O)C(=O)N3CCCC[C@H]3C(=O)O2)CC[C@H]1OCCO [Compound 41]
12 | CO[C@@H]1C[C@H](C[C@@H](C)[C@@H]2CC[C@H](C)/C=C(\C)[C@@H](O)[C@@H](OC)C(=O)[C@H](C)C[C@H](C)/C=C/C=C/C=C(\C)[C@H](NS(=O)(=O)CC(C)C)C[C@@H]3CC[C@@H](C)[C@@](O)(O3)C(=O)C(=O)N3CCCC[C@H]3C(=O)O2)CC[C@H]1O [Compound 10]
30 | CO[C@@H]1C[C@H](C[C@@H](C)[C@@H]2CC[C@H](C)/C=C(\C)[C@@H](O)[C@@H](OC)C(=O)[C@H](C)C[C@H](C)/C=C/C=C/C=C(\C)[C@H](N)C[C@@H]3CC[C@@H](C)[C@@](O)(O3)C(=O)C(=O)N3CCCC[C@H]3C(=O)O2)CC[C@H]1O [Compound 29]
1.8 | CO[C@@H]1C[C@H](C[C@@H](C)[C@@H]2CC[C@H](C)/C=C(\C)[C@@H](O)[C@@H](OC)C(=O)[C@H](C)C[C@H](C)/C=C/C=C/C=C(\C)[C@H](NS(C)(=O)=O)C[C@@H]3CC[C@@H](C)[C@@](O)(O3)C(=O)C(=O)N3CCCC[C@H]3C(=O)O2)CC[C@H]1OCCO [Compound 25]
